Consider 13 compounds from US8642647B2, “N1-benzo[1,3]dioxol-5-ylmethyl-N2-substituted biguanide derivative, preparation method thereof, and pharmaceutical composition containing same” (Hanall Biopharma Co., Ltd., priority 2008, dated 2014).

Values joined by “and” are separate entries in the source; they are usually repeats but may differ in a detail not shown here. Equal values may be shown once. Where a name gives a salt, the structure may show the parent alone.

Data set [1] deals with HepG2 cells. In words: Measurement of cholesterol synthesis inhibitory ability. Type of data set: cell-based. Particulars: HepG2 cells; for Cholesterol (100 μM) aver.: 100 μM compound; for Cholesterol (100 μM) aver. / Cholesterol (500 μM) aver.: 24 hours, content of cholesterol formed, lower value = stronger inhibition; for Cholesterol (500 μM) aver.: 500 μM compound. Here is the method:
(§1) 2 mM metformin was used as a comparative compound for each of the plates (control group).
A cholesterol synthesis inhibitory ability, which is an important function of AMPK (AMP-activated protein kinase), was measured using HepG2 cells (ATCC: American Type Culture Collection) as a hepatic cell model according to the following procedure.
The hepatic cell model HepG2 cells were cultured in 1% serum-containing media (DMEM (Gibco), FBS (Gibco)) for 24 hours, and then treated with 100 μM or 500 μM of each of the compounds prepared in Examples for 24 hours. Then, the cells were disrupted with a lysis solution (0.1 M potassium phosphate, pH 7.4, 0.05 M NaCl, 5 mM cholic acid, 0.1% Triton X-100 (Sigma)). To the disrupted cells was added the same volume of a reaction solution (2 U/ml of a cholesterol oxidizing agent, 2 U/ml of a peroxidase, 0.2 U/ml of a cholesterol esterase, and 300 μM of Amplex red as a fluorescent factor (Molecular Probe)), which was allowed to react at 37° C. for 30 minutes. After completion of the reaction, the content of cholesterol formed in the cell lysates was measured at a wavelength of 560/590 nm (ex/em) using a fluorescence microscope.
A lower measurement value means an increased cholesterol synthesis inhibitory ability.

Data set [2] deals with HepG2 cells. In words: Measurement of gluconeogenesis inhibitory ability. Particulars: for activity at 100 µM: Homo sapiens, HepG2, 24 h, read-out: Gluconeogenesis inhibition (100 μM) aver.; for activity at 100 µM / Gluconeogenesis inhibition (100 μM) aver.: 100 μM compound, 24 hours, content of glucose formed from 14C-lactate, lower value = stronger inhibition. It is filed as cell-based. Here is the method: as §1
HepG2 cells (ATCC: American Type Culture Collection) were cultured in 10% serum-containing high glucose media, transferred to no serum-containing low glucose media (DMEM (Gibco), FBS (Gibco)), and then treated with 100 μM of each of the compounds for 24 hours. Then, the cells were treated with 0.5 μCi ^14C-lactate (Amersham Pharmacia) and 10 mM L-lactate (Sigma), and cultured for 4 hours. After cultivation, the media were removed therefrom, and the cells were washed with PBS, treated with 0.1N NaOH and kept at room temperature for 1 hour. Then, the cells were neutralized with 1N HCl, and the content of glucose formed in the cells was measured with a liquid scintillation counter.
A lower measurement value means an increased gluconeogenesis inhibitory ability.

Data set [3] concerns HepG2 cells. In words: Measurement of triglyceride synthesis inhibitory ability. Type of data set: cell-based. Particulars: HepG2 cells; for Triglyceride (100 μM) aver.: 100 μM compound; for Triglyceride (100 μM) aver. / Triglyceride (500 μM) aver.: 24 hours, content of triglyceride formed, lower value = stronger inhibition; for Triglyceride (500 μM) aver.: 500 μM compound. Here is the method: as §1
HepG2 cells (ATCC: American Type Culture Collection) were cultured in 1% serum-containing media (DMEM (Gibco), FBS (Gibco)) for 24 hours, and then treated with 100 μM or 500 μM of each of the compounds prepared in Examples for 24 hours. Then, the cells were disrupted with a lysis solution (0.1 M potassium phosphate, pH 7.4, 0.05 M NaCl, 5 mM cholic acid, 0.1% Triton X-100). To the disrupted cells was added the same volume of a reaction solution (0.76 U/ml of a glycerol kinase (Asan Pharmaceutical Co., Ltd.), […] of a peroxidase (Asan Pharmaceutical Co., Ltd.), 22.2 U/ml of a glycerol oxidizing agent (Asan Pharmaceutical Co., Ltd.), and 300 μM of Amplex red as a fluorescent factor (Molecular Probe)), which was allowed to react at 37° C. for 30 minutes. After completion of the reaction, the content of triglyceride formed in the cell lysates was measured at a wavelength of 560/590 nm (ex/em) using a fluorescence microscope.
A lower measurement value means an increased triglyceride synthesis inhibitory ability.

For a further data set, the system named is C2C12 cells. In words: Measurement of glucose absorption ability. It is filed as cell-based. Particulars: for Glucose absorption (100 μM) aver.: 100 μM compound with 1 μM insulin, 24 hours, differentiated C2C12 cells, 3H-deoxy-glucose, higher value = stronger, more than 200% counts as glucose absorption ability. Here is the method: as §1
C2C12 cells (ATCC: American Type Culture Collection), a muscle cell model, were induced to differentiate into muscle cells in 2% bovine fetal serum-containing media (DMEM (Gibco), FBS (Gibco)) for 6 days. The C2C12 cells which differentiated into muscle cells were transferred to serum-free low glucose media (DMEM (Gibco), FBS (Gibco)), treated with 100 μM of each of the compounds, and then cultured with 1 μM of insulin for 24 hours. After cultivation, the cells were treated with 1 μCi ^3H-deoxy-glucose (Amersham Pharmacia) and 10 μM deoxy-glucose (Sigma) at 37° C. for 15 minutes. The media were removed therefrom, and the cells were washed twice with PBS (phosphate buffered saline). The washed cells were treated with 0.1N NaOH and neutralized with 1N HCl. The content of glucose absorbed into the cells was measured with a liquid scintillation counter.
A higher measurement value means a stronger ability to reduce insulin resistance.

[4] abbreviates: 100 μM compound versus 2 mM metformin.
Setting [5] is: Metformin 2 mM, one value per plate.

The melting point is the temperature of the solid-liquid transition. The compound `CC(C)(C)CC(C)(C)N=C(NCc1ccc2c(c1)OCO2)NC(=N)N.Cl` [Example 9, N1-benzo[1,3]dioxol-5-ylmethyl-N2-t-octyl biguanide hydrochloride] returned a melting point of 141.7 to 155.4 °C. Further, in the data set on HepG2 cells [1], the “Cholesterol (100 μM) aver.” value is listed as 37.3 and the “Cholesterol (500 μM) aver.” value is recorded as −7.10. Moreover, the “effect in inhibiting gluconeogenesis better than that of the control group” value in the data set with HepG2 cells [2] (setting [4]) is reported as “at least 20 times”. Also, the activity at 100 µM in the data set with HepG2 cells [2] (HepG2 cells) stood at 47.5%. For the same compound, in the data set on HepG2 cells [3], the “Triglyceride (100 μM) aver.” value came out at 82.6 and the “Triglyceride (500 μM) aver.” value is reported as −1.23.
With `CCc1cc(Cl)ccc1NC(=N)NC(=N)NCc1ccc2c(c1)OCO2.Cl` [Example 8, N1-benzo[1,3]dioxol-5-ylmethyl-N2-(2-ethyl-4-chloro)phenyl biguanide hydrochloride], in the data set with HepG2 cells [1], the “Cholesterol (100 μM) aver.” value is recorded as −1.48 and the “Cholesterol (500 μM) aver.” value stood at 28.1. The “Gluconeogenesis inhibition (100 μM) aver.” value in the data set on HepG2 cells [2] (HepG2 cells) came out at 96.20. Moreover, the “Glucose absorption (100 μM) aver.” value in the data set with C2C12 cells amounted to 14.21%. In the data set with HepG2 cells [3], the “Triglyceride (100 μM) aver.” value stood at 3.35 and the “Triglyceride (500 μM) aver.” value worked out at 19.3.
On to “N1-benzo[1,3]dioxol-5-ylmethyl-N2-(1-adamantyl)biguanide hydrochloride (isomer) [Example 28]”, for which, in the data set on HepG2 cells [1], the “Cholesterol (100 μM) aver.” value is recorded as 73.67 and the “Cholesterol (500 μM) aver.” value is listed as 30.11. The “Gluconeogenesis inhibition (100 μM) aver.” value in the data set with HepG2 cells [2] (HepG2 cells, 100 µM) worked out at 79.17. In addition, the “Glucose absorption (100 μM) aver.” value in the data set with C2C12 cells amounted to 2.20%. Moreover, in the data set with HepG2 cells [3], the “Triglyceride (100 μM) aver.” value was determined as 89.72 and the “Triglyceride (500 μM) aver.” value was found to be 28.87.
Take “N1-benzo[1,3]dioxol-5-ylmethyl-N2-(1-adamantyl)biguanide hydrochloride (isomer) [Example 29]”: in the data set with HepG2 cells [1], the “Cholesterol (100 μM) aver.” value is 43.03 and the “Cholesterol (500 μM) aver.” value is 67.50. In addition, the “Gluconeogenesis inhibition (100 μM) aver.” value in the data set on HepG2 cells [2] (HepG2 cells, 100 µM) was determined as 92.07. For the same compound, the “Glucose absorption (100 μM) aver.” value in the data set on C2C12 cells was 140.2%. For the same compound, in the data set on HepG2 cells [3], the “Triglyceride (100 μM) aver.” value is 101.52 and the “Triglyceride (500 μM) aver.” value is recorded as 81.39.
Consider “N1-benzo[1,3]dioxol-5-ylmethyl-N2-t-butyl biguanide hydrochloride [Example 4]”, for which, in the data set on HepG2 cells [1], the “Cholesterol (100 μM) aver.” value is 27.6 and the “Cholesterol (500 μM) aver.” value was 11.0. In the data set with HepG2 cells [2] (HepG2 cells), the “Gluconeogenesis inhibition (100 μM) aver.” value is 100.2. For the same compound, in the data set with C2C12 cells, the “Glucose absorption (100 μM) aver.” value is recorded as 162.5%. In the data set with HepG2 cells [3], the “Triglyceride (100 μM) aver.” value turned out to be 89.8 and the “Triglyceride (500 μM) aver.” value was 70.1.
`CN=C(NCc1ccc2c(c1)OCO2)NC(=N)N.Cl` [Example 17, N1-benzo[1,3]dioxol-5-ylmethyl-N2-methyl biguanide hydrochloride] yielded a melting point of 143.9 to 158.1 °C. Besides, in the data set on HepG2 cells [1], the “Cholesterol (100 μM) aver.” value came out at 55.85 and the “Cholesterol (500 μM) aver.” value amounted to 12.19. Further, in the data set on HepG2 cells [2] (HepG2 cells), the activity at 100 µM was 90.2%. Moreover, in the data set on HepG2 cells [3], the “Triglyceride (100 μM) aver.” value amounted to 96.55 and the “Triglyceride (500 μM) aver.” value worked out at 53.45.
`N=C(N)NC(=Nc1cccc2ccccc12)NCc1ccc2c(c1)OCO2` (as salt: hydrochloride) [Example 3, N1-benzo[1,3]dioxol-5-ylmethyl-N2-(1-naphthyl)biguanide hydrochloride]: the melting point lay in the range of 196.1 to 198.6 °C.
Consider `Cl.N=C(NCc1ccc2c(c1)OCO2)NC(=N)NCC1CC1` [Example 21, N1-benzo[1,3]dioxol-5-ylmethyl-N2-cyclopropanemethyl biguanide hydrochloride], for which, in the data set with HepG2 cells [1], the “Cholesterol (100 μM) aver.” value is given as 54.92 and the “Cholesterol (500 μM) aver.” value amounted to 15.61. In addition, the “Gluconeogenesis inhibition (100 μM) aver.” value in the data set with HepG2 cells [2] (HepG2 cells) came out at 88.12. Moreover, in the data set with C2C12 cells, the “Glucose absorption (100 μM) aver.” value is 162.2%. Further, in the data set with HepG2 cells [3], the “Triglyceride (100 μM) aver.” value is reported as 108.88 and the “Triglyceride (500 μM) aver.” value is on record as 83.07.
Consider `Cl.N=C(NCc1ccc2c(c1)OCO2)NC(=N)Nc1ccc(-c2ccccc2)cc1` [Example 35, N1-benzo[1,3]dioxol-5-ylmethyl-N2-(4-biphenyl)biguanide hydrochloride], for which, in the data set with HepG2 cells [1], the “Cholesterol (100 μM) aver.” value came out at 9.93 and the “Cholesterol (500 μM) aver.” value stood at 23.56. Besides, the “Gluconeogenesis inhibition (100 μM) aver.” value in the data set with HepG2 cells [2] (HepG2 cells) was determined as 2.28. Further, in the data set with C2C12 cells, the “Glucose absorption (100 μM) aver.” value is 39.19%. Besides, in the data set with HepG2 cells [3], the “Triglyceride (100 μM) aver.” value was 18.86 and the “Triglyceride (500 μM) aver.” value came to 14.13.
With `Cl.N=C(N)NC(=NC1CCCC1)NCc1ccc2c(c1)OCO2` [Example 19, N1-benzo[1,3]dioxol-5-ylmethyl-N2-cyclopentyl biguanide hydrochloride], in the data set with HepG2 cells [1], the “Cholesterol (100 μM) aver.” value worked out at 57.58 and the “Cholesterol (500 μM) aver.” value is on record as 27.93. In the data set with HepG2 cells [2] (HepG2 cells), the activity at 100 µM worked out at 92.7%. Moreover, in the data set with HepG2 cells [3], the “Triglyceride (100 μM) aver.” value is 100.59 and the “Triglyceride (500 μM) aver.” value is recorded as 80.60.
Take `CN(C)C(=N)N=C(N)N` [Metformin, metformin, reference compound]: the “Cholesterol aver. (control group)” value with HepG2 cells [1] (setting [5]) is 73.31 and 74.50 and 85.91 and 70.69. Also, the “Gluconeogenesis inhibition aver. (control group)” value in the data set with HepG2 cells [2] (Metformin 2 mM, HepG2 cells, one value per plate) is 64.50 and 59.11 and 53.09 and 78.33. Moreover, in the data set on C2C12 cells (Metformin 2 mM, C2C12 cells, one value per plate), the “Glucose absorption aver. (control group)” value was 253.20% and 336.45% and 291.63% and 170.94%. The “Triglyceride aver. (control group)” value in the data set on HepG2 cells [3] (setting [5]) is 74.57 and 69.88 and 73.61 and 70.05.
For `Cc1cccc(N=C(NCc2ccc3c(c2)OCO3)NC(=N)N)c1.Cl` [Example 42, N1-benzo[1,3]dioxol-5-ylmethyl-N2-(3-methylphenyl)biguanide hydrochloride], in the data set on HepG2 cells [1], the “Cholesterol (100 μM) aver.” value is 46.42 and the “Cholesterol (500 μM) aver.” value came to 28.95. In the data set with HepG2 cells [2] (HepG2 cells), the activity at 100 µM was determined as 56.1%. In addition, in the data set with HepG2 cells [3], the “Triglyceride (100 μM) aver.” value turned out to be 75.45 and the “Triglyceride (500 μM) aver.” value is recorded as 36.78.
Consider `Cl.N=C(N)NC(=NCc1ccccc1)NCc1ccc2c(c1)OCO2` [Example 5, N1-benzo[1,3]dioxol-5-ylmethyl-N2-benzyl biguanide hydrochloride], for which, in the data set on HepG2 cells [1], the “Cholesterol (100 μM) aver.” value is recorded as 30.3 and the “Cholesterol (500 μM) aver.” value was −8.28. Besides, the activity at 100 µM in the data set on HepG2 cells [2] (HepG2 cells) was 108%. In addition, in the data set with C2C12 cells (setting [4]), the “glucose absorption effect better than that of the control group” value is listed as “about 220 times”. Further, in the data set with HepG2 cells [3], the “Triglyceride (100 μM) aver.” value was determined as 102.8 and the “Triglyceride (500 μM) aver.” value was determined as 15.7.
